Our source for the inhibition and IC50 values is US20150353495A1 (PORTOLA PHARMACEUTICALS, INC., priority 2010, published 2015).

Where only a bound is given, the exact number is not on record here.

For assay [1], the system named is JAK1/3 signaling to STAT6 in Ramos B cells. As to the kind of experiment: IL4 stimulation of JAK1/3 signaling to STAT6 in Ramos B cells (pSTAT6 Y641, FACS). The format is cell-based. The note with it: Homo sapiens; for inhibition at 0.2 µM: 0.2 uM compound, read-out: IL-4/STAT6 in Ramos Percent Inhibition at 0.2 uM; for inhibition at 1 µM: 1.0 uM compound, read-out: IL-4/STAT6 in Ramos Percent Inhibition at 1.0 uM. In a few lines:
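Ramos cells in 10% FCS medium were pre-treated 1 h with compound, stimulated 15 min with 15 ng IL4, fixed in 2% paraformaldehyde and methanol-permeabilized. Intracellular phospho-STAT6 Y641 was stained with PE-conjugated antibody and quantified by flow cytometry.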

Assay [2] concerns the target T1, JAK1 (Homo sapiens, UniProt P23458).
T1 construct: 5 μl of catalytic domain recombinant Kinase enzyme+Tyr peptide substrate (Invitrogen, CA); purchased Invitrogen
As to the kind of experiment: Z'-LYTE kinase assay JAK1. It is filed as biochemical. In a few lines: (§1)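 Read-out is FRET fluorescence between coumarin and fluorescein on a Tyr6 peptide, lost when the development protease cleaves unphosphorylated substrate. Kinase reaction used recombinant catalytic domain with ATP, 1 h at room temperature, 1% DMSO.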

For assay [3], the target named is T2, JAK2 (Homo sapiens, UniProt O60674).
T2 construct: 5 μl of catalytic domain recombinant Kinase enzyme+Tyr peptide substrate (Invitrogen, CA); purchased Invitrogen
T2 sequence (O60674 849-1124 limits assumed): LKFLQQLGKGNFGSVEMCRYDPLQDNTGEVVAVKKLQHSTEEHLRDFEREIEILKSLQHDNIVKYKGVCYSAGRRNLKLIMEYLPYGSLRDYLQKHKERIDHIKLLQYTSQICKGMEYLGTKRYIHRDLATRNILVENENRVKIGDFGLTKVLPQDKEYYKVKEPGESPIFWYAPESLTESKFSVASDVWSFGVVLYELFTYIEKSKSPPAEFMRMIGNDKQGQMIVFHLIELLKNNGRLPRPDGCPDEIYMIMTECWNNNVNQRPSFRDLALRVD
As to the kind of experiment: Z'-LYTE kinase assay JAK2. The format is biochemical. In a few lines:
as §1

Assay [4] concerns the target T3, JAK3 (Homo sapiens, UniProt P52333).
T3 construct: 5 μl of catalytic domain recombinant Kinase enzyme+Tyr peptide substrate (Invitrogen, CA); purchased Invitrogen
As to the kind of experiment: Z'-LYTE kinase assay JAK3. It is filed as biochemical. In a few lines: as §1

Assay [5] concerns the target T4, TYK2 (Homo sapiens, UniProt P29597).
T4 construct: 5 μl of catalytic domain recombinant Kinase enzyme+Tyr peptide substrate (Invitrogen, CA); purchased Invitrogen
T4 sequence (P29597 897-1176 limits assumed): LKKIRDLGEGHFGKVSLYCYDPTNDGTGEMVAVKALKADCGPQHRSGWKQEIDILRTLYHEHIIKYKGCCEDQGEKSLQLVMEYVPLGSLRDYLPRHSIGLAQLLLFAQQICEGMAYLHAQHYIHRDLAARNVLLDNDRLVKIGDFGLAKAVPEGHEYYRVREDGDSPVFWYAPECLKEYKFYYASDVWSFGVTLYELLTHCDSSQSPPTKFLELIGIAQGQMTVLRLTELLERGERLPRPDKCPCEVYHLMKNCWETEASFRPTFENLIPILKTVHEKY
The assay can be described thus: Z'-LYTE kinase assay TYK2. It is filed as biochemical. A digest of the protocol: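 Recombinant catalytic-domain TYK2 with Tyr6 peptide in Z′-LYTE FRET format, 1% DMSO final, kinase reaction 1 h at room temperature, then protease development 1 h. Fluorescence read at 445/520 nm (excitation 400 nm), percent phosphorylation vs no-inhibitor control, IC50 from 4-parameter logistic fit.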

T3 sequence (P52333 822-1111 limits assumed): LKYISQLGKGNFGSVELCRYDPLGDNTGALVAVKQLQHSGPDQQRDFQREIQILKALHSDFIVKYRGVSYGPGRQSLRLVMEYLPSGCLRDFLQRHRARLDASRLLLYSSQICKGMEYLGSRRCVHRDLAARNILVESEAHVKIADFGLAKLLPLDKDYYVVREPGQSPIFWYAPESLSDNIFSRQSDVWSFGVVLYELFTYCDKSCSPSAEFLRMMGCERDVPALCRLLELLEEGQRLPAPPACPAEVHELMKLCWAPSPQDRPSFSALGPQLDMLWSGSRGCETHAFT
T1 sequence (P23458 875-1153 limits assumed): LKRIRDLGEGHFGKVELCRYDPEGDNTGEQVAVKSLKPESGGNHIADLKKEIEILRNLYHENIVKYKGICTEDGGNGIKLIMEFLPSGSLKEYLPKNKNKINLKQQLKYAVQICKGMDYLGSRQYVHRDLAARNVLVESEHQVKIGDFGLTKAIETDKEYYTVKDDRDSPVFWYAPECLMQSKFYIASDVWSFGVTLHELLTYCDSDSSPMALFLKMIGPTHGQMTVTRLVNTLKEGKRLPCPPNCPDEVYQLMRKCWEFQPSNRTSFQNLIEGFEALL

Usually IC50 stands for the concentration needed to halve the response being measured. Higher therefore signals weaker potency. As for `NC(=O)c1cnc(Nc2ccc(N3CCOCC3)cc2)cc1NCc1ccccc1F` [Example 73, 4-(2-fluorobenzylamino)-6-(4-morpholinophenylamino)nicotinamide], the inhibition at 0.2 µM in assay [1] came out at 23%. Further, the inhibition at 1 µM in assay [1] amounted to 53%. Further, the IC50 lay in the range of 100 to 1000 nM in assay [2], 10 to 100 nM in assay [3], 1 to 10 nM in assay [4] and 100 to 1000 nM in assay [5].
Regarding `CC(=O)N1CCN(c2ccc(Nc3cc(NCc4cccs4)c(C(N)=O)cn3)cc2)CC1` [Example 122, 6-(4-(4-acetylpiperazin-1-yl)phenylamino)-4-(thiophen-2-ylmethylamino)nicotinamide], in assay [1], the inhibition at 0.2 µM was 34%. Also, in assay [1], the inhibition at 1 µM is 57%. The half-inhibitory concentration (IC50) in assay [2] fell in the range of 100 to 1000 nM; in assay [3] it was 100 to 1000 nM; in assay [4], 1 to 10 nM; in assay [5], 10 to 100 nM.
As for `CNC(=O)[C@@H]1CCCN(c2ccc(Nc3cc(N[C@H](C)c4ccccc4)c(C(N)=O)cn3)cc2)C1` [Example 8, 6-(4-((R)-3-(methylcarbamoyl)piperidin-1-yl)phenylamino)-4-((R)-1-phenylethylamino)nicotinamide], the inhibition at 0.2 µM in assay [1] amounted to 8%. Also, in assay [1], the inhibition at 1 µM was 30%. In addition, the IC50 is 100 to 1000 nM in assay [2], 100 to 1000 nM in assay [3], 1 to 10 nM in assay [4] and over 1000 nM in assay [5].
As for `CNC(=O)c1cccc(Nc2cc(NCc3ccccc3)c(C(N)=O)cn2)c1` [Example 246, 4-(benzylamino)-6-(3-(methylcarbamoyl)phenylamino)nicotinamide], the inhibition at 0.2 µM in assay [1] was found to be 6%. Moreover, the inhibition at 1 µM in assay [1] was found to be 11%. Further, the half-maximal inhibitory concentration (IC50) in assay [2] is 100 to 1000 nM; in assay [3], 100 to 1000 nM; in assay [4] it was 10 to 100 nM; in assay [5], over 1000 nM.
Regarding `CN(C)C(=O)c1ccc(Nc2cc(NCc3cc(F)ccc3F)c(C(N)=O)cn2)cc1` [Example 92, 4-(2,5-difluorobenzylamino)-6-(4-(dimethylcarbamoyl)phenylamino)nicotinamide], the inhibition at 0.2 µM in assay [1] is 41%. The inhibition at 1 µM in assay [1] came out at 67%. Besides, the IC50 in assay [2] was in the range of 100 to 1000 nM; in assay [3], 10 to 100 nM; in assay [4], 1 to 10 nM; in assay [5], 100 to 1000 nM.
`CN(C)C(=O)c1cccc(Nc2cc(NCc3ccccc3)c(C(N)=O)cn2)c1` [Example 247, 4-(benzylamino)-6-(3-(dimethylcarbamoyl)phenylamino)nicotinamide]: the inhibition at 0.2 µM in assay [1] worked out at 6%. In addition, the inhibition at 1 µM in assay [1] was 24%. Further, the IC50 in assay [2] lay in the range of 100 to 1000 nM; in assay [3], 100 to 1000 nM; in assay [4], 10 to 100 nM; in assay [5] it was 100 to 1000 nM.
With `NC(=O)c1cnc(Nc2ccc(N3CCCCC3=O)cc2)cc1NCc1cccc(F)c1` [Example 64, 4-(3-fluorobenzylamino)-6-(4-(2-oxopiperidin-1-yl)phenylamino)nicotinamide], the inhibition at 0.2 µM in assay [1] is 32%. Moreover, in assay [1], the inhibition at 1 µM was determined as 50%. Further, the concentration for half-maximal inhibition (IC50) is 100 to 1000 nM in assay [2], 10 to 100 nM in assay [3], 1 to 10 nM in assay [4] and 100 to 1000 nM in assay [5].
`COCCOc1ccc(Nc2cc(NCc3ccccc3)c(C(N)=O)cn2)cc1` [Example 432, 4-(benzylamino)-6-(4-(2-methoxyethoxyl)phenylamino)nicotinamide]: the inhibition at 0.2 µM in assay [1] was determined as 16%. The inhibition at 1 µM in assay [1] was 17%. Further, the concentration for half-maximal inhibition (IC50) in assay [2] is over 1000 nM; in assay [3], 100 to 1000 nM; in assay [4], 10 to 100 nM; in assay [5], over 1000 nM.
Regarding `CC(=O)N1CCN(c2ccc(Nc3cc(NCc4ccccc4)c(C(N)=O)cn3)cc2)CC1` [Example 3, 6-(4-(4-acetylpiperazin-1-yl)phenylamino)-4-(benzylamino)nicotinamide], the inhibition at 0.2 µM in assay [1] was found to be 22%. In addition, the inhibition at 1 µM in assay [1] worked out at 43%. Further, the IC50 in assay [2] lay in the range of 100 to 1000 nM; in assay [3] it was 10 to 100 nM; in assay [4], 10 to 100 nM; in assay [5], 100 to 1000 nM.
As for `CN(C)C(=O)c1ccc(Nc2cc(NCc3ccccc3)c(C(N)=O)cn2)cc1` [Example 248, 4-(benzylamino)-6-(4-(dimethylcarbamoyl)phenylamino)nicotinamide], the inhibition at 0.2 µM in assay [1] was determined as 24%. In addition, the inhibition at 1 µM in assay [1] amounted to 50%. The IC50 in assay [2] was 100 to 1000 nM; in assay [3], 100 to 1000 nM; in assay [4], 1 to 10 nM; in assay [5] it was 100 to 1000 nM.
Take `CC(=O)N1CCN(c2ccc(Nc3cc(NCC4CCCC4)c(C(N)=O)cn3)cc2)CC1` [Example 245, 6-(4-(4-acetylpiperazin-1-yl)phenylamino)-4-(cyclopentylmethylamino)nicotinamide]: the inhibition at 0.2 µM in assay [1] came to 14%. Further, the inhibition at 1 µM in assay [1] came to 38%. Also, the IC50 in assay [2] fell in the range of 100 to 1000 nM; in assay [3], 10 to 100 nM; in assay [4], 1 to 10 nM; in assay [5], 10 to 100 nM.
As to `NC(=O)c1cnc(Nc2cccc(N3CCOCC3)c2)cc1NCc1cccc(F)c1` [Example 65, 4-(3-fluorobenzylamino)-6-(3-morpholinophenylamino)nicotinamide], the inhibition at 0.2 µM in assay [1] came to 28%. Moreover, in assay [1], the inhibition at 1 µM was found to be 49%. In addition, the half-inhibitory concentration (IC50) in assay [2] was 100 to 1000 nM; in assay [3] it was 10 to 100 nM; in assay [4] it was 1 to 10 nM; in assay [5] it was over 1000 nM.
Consider `COCC(=O)N1CCC(c2ccc(Nc3cc(NCc4ccccc4F)c(C(N)=O)cn3)cc2)CC1` [Example 116, 4-(2-fluorobenzylamino)-6-(4-(1-(2-methoxyacetyl)piperidin-4-yl)phenylamino)nicotinamide], for which the inhibition at 0.2 µM in assay [1] stood at 25%. Moreover, in assay [1], the inhibition at 1 µM stood at 43%. Besides, the half-maximal inhibitory concentration (IC50) was 100 to 1000 nM in assay [2], 10 to 100 nM in assay [3], 1 to 10 nM in assay [4] and 100 to 1000 nM in assay [5].
As to `NC(=O)c1cnc(Nc2ccc(C3CCNCC3)cc2)cc1NCc1ccccc1F` [Example 106, 4-(2-fluorobenzylamino)-6-(4-(piperidin-4-yl)phenylamino)nicotinamide], the inhibition at 0.2 µM in assay [1] worked out at 28%. Besides, the inhibition at 1 µM in assay [1] is 49%. Moreover, the IC50 in assay [2] lay in the range of 100 to 1000 nM; in assay [3], 100 to 1000 nM; in assay [4], 1 to 10 nM; in assay [5], 100 to 1000 nM.
As to `N#CCC(=O)N1CCC(c2ccc(Nc3cc(NCc4ccccc4F)c(C(N)=O)cn3)cc2)CC1` [Example 117, 6-(4-(1-(2-cyanoacetyl)piperidin-4-yl)phenylamino)-4-(2-fluorobenzylamino)nicotinamide], in assay [1], the inhibition at 0.2 µM is 43%. Also, the inhibition at 1 µM in assay [1] amounted to 67%. Moreover, the half-inhibitory concentration (IC50) lay in the range of 100 to 1000 nM in assay [2], 100 to 1000 nM in assay [3], 1 to 10 nM in assay [4] and 100 to 1000 nM in assay [5].
For the compound `NC(=O)c1cnc(Nc2cccc(OCCN3CCOCC3)c2)cc1NCc1cccc(F)c1` [Example 228], the inhibition at 0.2 µM in assay [1] is 24%. The inhibition at 1 µM in assay [1] was 48%. The IC50 in assay [2] was 100 to 1000 nM; in assay [3], 100 to 1000 nM; in assay [4], 1 to 10 nM; in assay [5], over 1000 nM.
Consider `NC(=O)c1cnc(Nc2ccc(OCC(=O)N3CCOCC3)cc2)cc1NCc1ccccc1` [Example 80, 4-(benzylamino)-6-(4-(2-morpholino-2-oxoethoxy)phenylamino)nicotinamide], for which the inhibition at 0.2 µM in assay [1] came out at 23%. The inhibition at 1 µM in assay [1] came out at 43%. Further, the half-maximal inhibitory concentration (IC50) in assay [2] was over 1000 nM; in assay [3], 100 to 1000 nM; in assay [4], 10 to 100 nM; in assay [5], over 1000 nM.
On to `COc1cc(Nc2cc(NCc3cccc(F)c3)c(C(N)=O)cn2)ccc1N1CCCC1=O` [Example 63, 4-(3-fluorobenzylamino)-6-(3-methoxy-4-(2-oxopyrrolidin-1-yl)phenylamino)nicotinamide], for which the inhibition at 0.2 µM in assay [1] was 32%. In assay [1], the inhibition at 1 µM is 46%. The half-inhibitory concentration (IC50) in assay [2] was 100 to 1000 nM; in assay [3], 100 to 1000 nM; in assay [4], 1 to 10 nM; in assay [5], over 1000 nM.
As for `NC(=O)c1cnc(Nc2ccc(N3CCCCC3=O)cc2)cc1NCc1ccccc1F` [Example 71, 4-(2-fluorobenzylamino)-6-(4-(2-oxopiperidin-1-yl)phenylamino)nicotinamide], the inhibition at 0.2 µM in assay [1] was found to be 22%. Besides, in assay [1], the inhibition at 1 µM is 37%. Moreover, the IC50 in assay [2] is 100 to 1000 nM; in assay [3] it was 100 to 1000 nM; in assay [4], 1 to 10 nM; in assay [5], 100 to 1000 nM.
